According to PubChem BioAssay (NCI):
Values joined by “and” are separate entries in the source; they are usually repeats but may differ in a detail not shown here. Equal values may be shown once.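 These data come from cells grown in 96-well plates and exposed to compound for 48 hours at five concentrations. GI50: concentration for 50% inhibition of growth. Definition used: TGI = concentration required for complete inhibition of growth.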

Legend:
Assay in all cases: DTP human tumour cell line panel, 48 h
A549 NSCLC = tested on: A549 NSCLC
NCI-H226 lung = tested on: NCI-H226 lung
NCI-H522 lung = tested on: NCI-H522 lung
HCT-15 colon = tested on: HCT-15 colon
OVCAR-3 ovarian = tested on: OVCAR-3 ovarian
UACC-62 melanoma = tested on: UACC-62 melanoma
OVCAR-8 ovarian = tested on: OVCAR-8 ovarian
HT29 colon = tested on: HT29 colon
SK-MEL-5 melanoma = tested on: SK-MEL-5 melanoma
SF-268 CNS = tested on: SF-268 CNS
SF-295 CNS = tested on: SF-295 CNS

SMILES | TGI (A549 NSCLC) [µM] | TGI (NCI-H226 lung) [µM] | TGI (NCI-H522 lung) [µM] | TGI (HCT-15 colon) [µM] | TGI (OVCAR-3 ovarian) [µM] | TGI (UACC-62 melanoma) [µM] | TGI (OVCAR-8 ovarian) [µM] | TGI (HT29 colon) [µM] | TGI (SK-MEL-5 melanoma) [µM] | TGI (SF-268 CNS) [µM] | TGI (SF-295 CNS) [µM] | GI50 (HCT-15 colon) | GI50 (SF-268 CNS) | GI50 (A549 NSCLC) [µM] | GI50 (NCI-H226 lung) [µM] | GI50 (NCI-H522 lung) [µM] | GI50 (OVCAR-3 ovarian) [µM] | GI50 (UACC-62 melanoma) [µM] | GI50 (HT29 colon) [µM] | GI50 (SK-MEL-5 melanoma) [µM]
c1ccc(SC(Sc2ccccc2)c2ccc3c(c2)OCO3)cc1 | > 100 | > 100 | > 100 | > 100 | > 100 | > 100 | > 100 | > 100 | > 100 | > 100 | > 100 |  |  |  |  |  |  |  |  | 
COc1cccc(C2C(C(=O)O)=C(CO)Oc3cc4c(cc32)OCO4)c1 (centres undefined) |  | > 100 | > 100 | > 100 | > 100 | > 100 | > 100 | > 100 | > 100 | > 100 | > 100 |  |  |  |  |  |  |  |  | 
O=NNc1cnccn1 | > 1250 | > 1250 | > 1250 | > 1250 | > 1250 | > 1220 | > 1250 | > 1250 | > 1250 | > 1250 | > 1250 |  |  |  |  |  |  |  |  | 
O=C(O)c1cncc(C(=O)O)c1 | > 100 | > 100 | > 100 | > 100 | > 100 | > 100 | > 100 | > 100 | > 100 | > 100 | > 100 |  |  |  |  |  |  |  |  | 
O=C(O)/C=C/c1cnc[nH]1 | > 500 | > 500 | > 500 | > 500 | > 500 | > 500 | > 500 | > 500 | > 232 | > 500 | > 500 | 284 µM and > 500 µM | > 500 µM and 70 µM |  |  |  |  |  |  | 
C=C(CN(C)C)C(=O)c1cc(C)ccc1C | 41.6 | 27.8 | 1.52 | 10.6 | 18.1 | 29.7 | 66.5 | 29.3 | 27.2 | 68.3 | 34.1 |  |  |  |  |  |  |  |  | 
O=C(N1CCC(CN=c2cc3n(-c4ccc(Cl)cc4)c4ccccc4nc-3cc2Nc2ccc(Cl)cc2)CC1)N1CC1 | 11.7 | 74.2 | 2.73 | 1.87 | 2.69 | 3.47 |  | 0.547 | 2.81 | 3.69 |  | 0.512 µM | 1.3 µM | 0.71 | 23.6 | 1.32 | 1.1 | 1.92 | 0.204 | 1.49
COc1ccc2c(c1)O[C@H]1c3ccc(O)cc3OC[C@@H]21 | > 100 | 59.3 | 79.4 | > 100 | > 100 | 29.3 | > 100 | > 100 | 32 | > 100 | > 100 |  |  |  |  |  |  |  |  | 
CCOC(=O)C1(C(=O)OCC)CSC1 | > 100 | > 100 | > 100 | > 100 | > 100 |  | > 100 | > 100 | > 100 | > 100 | > 100 |  |  |  |  |  |  |  |  | 
NC(CCCNc1cccc(O)c1)C(=O)O (centres undefined) | > 100 | > 100 | > 100 | > 100 | > 100 | > 100 | > 100 | > 100 | > 100 | > 100 | > 100 |  |  |  |  |  |  |  |  | 
COc1ccc2c[n+](C)c3c4cc(OC)c(OC)cc4ccc3c2c1 | 10.3 | 35.1 | 7.5 | > 70.4 | 17.7 | 41.3 | 13.8 | 23.1 | 29.3 | 13.2 | 34.8 |  |  |  |  |  |  |  |  | 
COC(=O)C1=COC2OC3/C(=C\c4ccc(O)c(OC)c4)C(=O)OC34C=CC1C24 (centres undefined) | 32.4 | 29.2 | 28.8 | 27.7 | 28.2 | 36.4 | 37.7 | 33.5 | > 100 | 35.3 | 32.5 |  |  |  |  |  |  |  |  | 
CCOc1ccc(N=Nc2ccc3oc(=O)c(/C(C)=N\NC(=O)CC(=O)Nc4ccc(Cl)cc4)cc3c2)cc1 | 43.3 | > 100 | 50.1 | 26.4 | 30.4 | 28.9 | 34.4 |  | 38.7 | 41.5 | 34.3 |  |  |  |  |  |  |  |  | 
